According to the supplement of paper PMC10307832:

Tests used:
Assay in all cases: relative viability (nuclei count vs DMSO), 5 days (fraction); higher = more cells survive
[1] = compound: CCC1=CN=CN=C1N2CCN(CC2)CC3=NC4=C(N3)C=C(C=C4)C(F)(F)F + Nc1nc2[nH]cc(CCc3ccc(C(=O)N[C@@H](CCC(=O)O)C(=O)O)cc3)c2c(=O)[nH]1 [Pemetrexed] (partner 0.2 µM)
Summary of the method: (§1)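 One day after seeding in 1536-well plates, lung cancer cell lines were dosed by pin tool. Dosing was either single-drug or a fixed anchor-drug dose plus five library-drug doses (not always all listed) in √10 steps. After 5 days, nuclei were stained in one fix-and-stain step and counted on 4× images, and relative viability is the nuclei count of treated wells over that of vehicle wells, given as the median of duplicate plates.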

[2] = compound: N=C1NC(=O)/C(=C/c2ccc(O)cc2)S1 [Mirin] + Nc1ncn([C@H]2C[C@H](O)[C@@H](CO)O2)c(=O)n1 [Decitabine] (partner 2 µM)
Summary of the method: as §1

[3] = compound: CCC1=CN=CN=C1N2CCN(CC2)CC3=NC4=C(N3)C=C(C=C4)C(F)(F)F + CC(=O)Nc1cccc(-n2c(=O)n(C3CC3)c(=O)c3c(Nc4ccc(I)cc4F)n(C)c(=O)c(C)c32)c1 [Trametinib] (partner 0.02 µM)
Summary of the method: as §1

[4] = compound: CCC1=CN=CN=C1N2CCN(CC2)CC3=NC4=C(N3)C=C(C=C4)C(F)(F)F + Cc1nc(NC(=O)N2CCC[C@H]2C(N)=O)sc1-c1ccnc(C(C)(C)C(F)(F)F)c1 [Alpelisib] (partner 2 µM)
Summary of the method: as §1

UMC-11
relative viability ([1]; first compound 0.04 µM): 0.772
relative viability ([1]; first compound 0.1265 µM): 0.767
relative viability ([1]; first compound 0.4 µM): 0.83
relative viability ([1]; first compound 1.265 µM): 0.761
relative viability ([1]; first compound 4 µM): 0.724
relative viability ([2]; first compound 0.25 µM): 0.533
relative viability ([2]; first compound 2.5 µM): 0.572
relative viability ([2]; first compound 7.906 µM): 0.54
relative viability ([2]; first compound 25 µM): 0.418
relative viability ([3]; first compound 0.04 µM): 0.721
relative viability ([3]; first compound 0.1265 µM): 0.592
relative viability ([3]; first compound 0.4 µM): 0.671
relative viability ([3]; first compound 1.265 µM): 0.514
relative viability ([3]; first compound 4 µM): 0.721
relative viability ([4]; first compound 0.04 µM): 0.973
relative viability ([4]; first compound 0.1265 µM): 1.07
relative viability ([4]; first compound 0.4 µM): 0.959
relative viability ([4]; first compound 1.265 µM): 0.906
relative viability ([4]; first compound 4 µM): 0.871
